Consider 18 molecules from article PMC10895668, “Lead Optimization of the 5-Phenylpyrazolopyrimidinone NPD-2975 toward Compounds with Improved Antitrypanosomal Efficacy” (Journal of Medicinal Chemistry, 2024).

Where a name gives a salt, the structure may show the parent alone. Read-outs that look alike come from different tables or passages of the source.

In data set [1] the test system is T. b. brucei. Put plainly: Trypanosoma susceptibility assay (resazurin viability). The data set is classed as cell-based. The following applies: for decrease of antitrypanosomal activity compared with 2: T. b. brucei, versus compound 2; for antitrypanosomal activity (in words): T. brucei in vitro; for potency lower compared to 31a: T. brucei, versus compound 31a. As to the method:
(§1) The antiparasitic assays were carried out exactly as described in Blaazer et al.([39]) Metabolic stability, pharmacokinetics, acute mouse infection model results were collected as described previously.[21] All animal experiments were conducted in compliance with institutional guidelines and following approval by the Ethical Committee of the University of Antwerp, Belgium [UA-ECD 2014–96]. Female Swiss mice (15–20 g), were purchased from Janvier (Le Genest Saint Isle, France). […] Animals were treated PO b.i.d. for 5 days at 25 and 50 mg/kg 31c. For the SL-RNA qPCR experiments blood was collected sublingually and subjected to erythrocyte lysis before extracting RNA with the QIAamp RNA Blood Mini kit (Qiagen). […] Small pieces of fat, brain, and spleen tissue were excised and immediately transferred to RNA later (Qiagen) and incubated overnight at 4 °C. RNA extraction was performed as instructed in the RNeasy Mini Plus Kit manual (Qiagen). The one-step SensiFAST SYBR Hi-Rox PCR kit (Bioline USA Inc., via Gentaur Belgium BVBA, Kampenhout, Belgium) was used for the PCR with the following forward and reverse primers, respectively 5′-[…]-3′ and 5′-[…]-3′. An initial activation step of 10 min at 45 °C and 10 min at 95 °C was used, followed by the amplification step for 40 cycles (15 s at 95 °C, 15 s 50 °C and 15 s at 60 °C). At last, the melting curves were generated with an increment of 0.3 °C (15 s at 95 °C 1 min at 45 °C and 15 s at 95 °C). The PCR was run on the Step One Plus real-time PCR system (Applied Biosystems, California, USA). An additional qPCR was performed with the mouse housekeeping gene Eef2 to confirm successful RNA extraction.
In vitro experiments were carried out with the bloodstream form of the T. b. brucei Squib strain (suramin-sensitive). Parasites were routinely cultured in T25 culture flasks containing 10 mL of HMI-9 medium (Invitrogen) supplemented with 10% heat-inactivated fetal bovine serum (Life Technologies) and 2.5 μg/mL Geneticin (Life Technologies). MRC-5SV2 cells were cultured in MEM + Earl’s salts-medium, supplemented with 2 mM L-glutamine, 16.5 mM NaHCO3, and 5% inactivated fetal calf serum. All cultures and assays were conducted at 37 °C under an atmosphere of 5% CO2.
Parasites were counted in a KOVA counting chamber and diluted to 1.5 × 10^4 parasites/well of a 96-well plate (200 μL total volume), upon which the prediluted test compounds were added. Drug exposure covered a 72 h period without renewal of the culture medium. After 3 days of incubation, parasite growth was assessed fluorimetrically after addition of 50 μL of resazurin per well. After 6 h (T. b. rhodesiense) or 24 h (T. b. brucei) at 37 °C, fluorescence is measured (λex 550 nm, λem 590 nm). Parasite viability was assessed using the resazurin viability assay, and drug activity was calculated as percentage viability reduction compared to nontreated controls.

The subject of data set [2] is MRC-5 cells. Nature of the data set: MRC-5SV2 cytotoxicity assay. The data set is classed as cell-based. The note with it: Homo sapiens, MRC5, 72 h, read-out: pIC50 MRC-5 (converted). As to the method: The synthesized analogues were tested against T. b. brucei, and inhibition of MRC-5 (human lung fibroblasts MRC-5SV40) cell proliferation was included as cytotoxicity control. […] Analogue 17 with an amino group instead of the carbonyl group was prepared to improve solubility for further modification. […] In vitro experiments were carried out with the bloodstream form of the T. b. brucei Squib strain (suramin-sensitive). […] All cultures and assays were conducted at 37 °C under an atmosphere of 5% CO2. […] Cell growth is compared to untreated-control wells (100% cell growth) and medium-control wells (0% cell growth). […] After 4 h at 37 °C, fluorescence is measured (λex 550 nm, λem 590 nm). The results are expressed as % reduction in cell growth/viability compared to control wells and an IC50 and an IC90 (50 and 90% inhibitory concentrations) are determined.

For data set [3], the system named is MRC-5 cells. The following applies: Figure 1; previously reported series ref 21; cited from earlier work.
Data set [4] deals with T. b. brucei. The note with it: 10 mg/kg IP s.i.d. for 5 days, positive control, n = 3. As for the experimental part:
as §1
Mice were allocated to groups of three and were infected by IP injection of 10^4T. brucei Squib 427 trypomastigotes. […] Suramin was included as a reference for T. brucei and injected IP s.i.d. for 5 days at 10 mg/kg. A PEG400 vehicle control group was also included. […] The first treatment was given 30 min prior to the artificial infection. Drug efficacy was evaluated by microscopic determination of the parasitemia in a blood drop collected from the tail vein at several time points until 63 days postinfection (dpi). […] An SL-RNA qPCR assay was performed in all surviving animals to confirm parasitological cure. For the SL-RNA qPCR, peripheral blood was subjected to erythrocyte lysis before extracting RNA with the QIAamp RNA Blood Mini kit (Qiagen). […] Small pieces of fat, brain, and spleen tissues were excised and immediately transferred to RNA later (Qiagen) and incubated overnight at 4 °C. RNA extraction was performed as instructed in the RNeasy Mini Plus Kit manual (Qiagen). […]

Setting [5] is: Trypanosoma brucei, 72 h, T. b. brucei Squib bloodstream form, 72 h exposure, mean ± SD, n ≥ 2, read-out: pIC50 T. brucei (converted).
Setting [6] is: cytotoxicity, 3 days incubation, mean ± SD, n ≥ 2.
Where [7] appears, read: T. b. brucei Squib bloodstream form, 72 h exposure, mean ± SD, n ≥ 2.

Consider “5-(4-Fluorophenyl)-3-isopropyl-1-(4-methoxyphenethyl)-1,6-dihydro-7H-pyrazolo[4,3-d]pyrimidin-7-one [21e]”, for which, in the data set with T. b. brucei [1] (read-out: IC50 against T. brucei), the IC50 came to 3.2 µM.

In the case of `CCn1nc(C(C)C)c2nc(-c3ccc(F)cc3)[nH]c(=O)c21` [21a, 1-Ethyl-5-(4-fluorophenyl)-3-isopropyl-1,6-dihydro-7H-pyrazolo[4,3-d]pyrimidin-7-one], the IC50 was 0.251 µM with T. b. brucei [1] (setting [5]) and above 63.1 µM in the data set with MRC-5 cells [2] (setting [6]).

`CCCn1nc(C(C)C)c2nc(-c3ccc(F)cc3)[nH]c(=O)c21` [21b, 5-(4-Fluorophenyl)-3-isopropyl-1-propyl-1,6-dihydro-7H-pyrazolo[4,3-d]pyrimidin-7-one]: the IC50 with T. b. brucei [1] (setting [5]) is 0.158 µM; in the data set with MRC-5 cells [2] (setting [6]), above 63.1 µM.

Regarding `CC(C)c1nn(C(C)C)c2c(=O)[nH]c(-c3ccc(F)cc3)nc12` [21c, 5-(4-Fluorophenyl)-1,3-diisopropyl-1,6-dihydro-7H-pyrazolo[4,3-d]pyrimidin-7-one], the “decrease of antitrypanosomal activity compared with 2” value (shortened to “decrease of antitrypanosomal activity”) in the data set with T. b. brucei [1] was around 100 fold. The values for the IC50 in the data set on T. b. brucei [1] (setting [5]) and with MRC-5 cells [2] (setting [6]) were 6.31 µM and above 63.1 µM, respectively.

`COCCn1nc(C(C)C)c2nc(-c3ccc(F)cc3)[nH]c(=O)c21` [21d, 5-(4-Fluorophenyl)-3-isopropyl-1-(2-methoxyethyl)-1,6-dihydro-7H-pyrazolo[4,3-d]pyrimidin-7-one]: the “antitrypanosomal activity (in words)” value in the data set on T. b. brucei [1] is reported as “no antitrypanosomal activity at all”. Moreover, the IC50 in the data set on T. b. brucei [1] (setting [5]) and in the data set with MRC-5 cells [2] (setting [6]) was above 63.1 µM in each case.

Turning to `CC(C)c1nn(CCC(N)=O)c2c(=O)[nH]c(-c3ccc(F)cc3)nc12` [21f, 3-(5-(4-Fluorophenyl)-3-isopropyl-7-oxo-6,7-dihydro-1H-pyrazolo[4,3-d]pyrimidin-1-yl)propanamide], the “antitrypanosomal activity (in words)” value in the data set with T. b. brucei [1] is given as “no antitrypanosomal activity”. For the same molecule, the IC50 in the data set on T. b. brucei [1] (setting [5]) and in the data set on MRC-5 cells [2] (setting [6]) was above 63.1 µM each time.

As to `O=c1[nH]c(-c2ccc(F)cc2)nc2c(C3CCCCC3)n[nH]c12` [31b, 3-Cyclohexyl-5-(4-fluorophenyl)-1,6-dihydro-7H-pyrazolo[4,3-d]pyrimidin-7-one], the “potency lower compared to 31a” value in the data set on T. b. brucei [1] is listed as 4 fold. Besides, in the data set on MRC-5 cells [2] (setting [6]), the IC50 is above 63.1 µM.

Turning to `CCc1n[nH]c2c(=O)[nH]c(-c3ccc(F)cc3)nc12` [31d, 3-Ethyl-5-(4-fluorophenyl)-1,6-dihydro-7H-pyrazolo[4,3-d]pyrimidin-7-one], the IC50 in the data set on T. b. brucei [1] (setting [5]) is 0.398 µM; in the data set on MRC-5 cells [2] (setting [6]), above 63.1 µM.

For the molecule `Cc1n[nH]c2c(=O)[nH]c(-c3ccc(F)cc3)nc12` [31e, 5-(4-Fluorophenyl)-3-methyl-1,6-dihydro-7H-pyrazolo[4,3-d]pyrimidin-7-one], the IC50 in the data set on T. b. brucei [1] (setting [5]) was 25.1 µM; in the data set on MRC-5 cells [2] (setting [6]), above 63.1 µM.

Take `O=c1[nH]c(-c2ccc(F)cc2)nc2cn[nH]c12` [31f, 5-(4-Fluorophenyl)-1,6-dihydro-7H-pyrazolo[4,3-d]pyrimidin-7-one Formate]: the IC50 with T. b. brucei [1] (Trypanosoma brucei, 72 h, read-out: pIC50 T. brucei (converted)) is above 63.1 µM; in the data set on MRC-5 cells [2], above 63.1 µM.

As to `CC(C)c1n[nH]c2c(=O)[nH]c(Cc3ccccc3)nc12` [compound 1, reference compound], the “MRC-5 pIC50” value with MRC-5 cells [3] is below 4.2.

On to `CC(C)c1[nH]nc2c(=O)n(C)c(-c3ccc(F)cc3)nc12` [compound 7, 5-(4-Fluorophenyl)-3-isopropyl-6-methyl-2,6-dihydro-7H-pyrazolo[4,3-d]pyrimidin-7-one], for which the “decrease of antitrypanosomal activity” value in the data set with T. b. brucei [1] was above 100 fold. Also, the results for the IC50 in the data set on T. b. brucei [1] (setting [5]) and with MRC-5 cells [2] (setting [6]) were above 10 µM and above 63.1 µM, respectively.

As to `CC(C)c1nn(C)c2c(=O)[nH]c(-c3ccc(F)cc3)nc12` [compound 11, 5-(4-Fluorophenyl)-3-isopropyl-1-methyl-1,6-dihydro-7H-pyrazolo[4,3-d]pyrimidin-7-one], the “pIC50 T. brucei” value in the data set with T. b. brucei [1] (setting [7]) is listed as 7.1 ± 0.1. Further, the IC50 is below 0.1 µM in the data set on T. b. brucei [1] (setting [5]) and above 63.1 µM in the data set with MRC-5 cells [2] (setting [6]).

On to `CC(C)c1c2nc(-c3ccc(F)cc3)[nH]c(=O)c2nn1C` [compound 15, 5-(4-Fluorophenyl)-3-isopropyl-2-methyl-2,6-dihydro-7H-pyrazolo[4,3-d]pyrimidin-7-one], for which the “decrease of antitrypanosomal activity” value with T. b. brucei [1] is on record as 20 fold. Besides, the IC50 was 1.58 µM with T. b. brucei [1] (setting [5]) and above 63.1 µM in the data set on MRC-5 cells [2] (setting [6]).

`CC(C)c1n[nH]c2c(=N)[nH]c(-c3ccc(F)cc3)nc12` [compound 17, 5-(4-Fluorophenyl)-3-isopropyl-1,6-dihydro-7H-pyrazolo[4,3-d]pyrimidin-7-imine]: the “decrease of antitrypanosomal activity” value in the data set on T. b. brucei [1] was above 100 fold. The IC50 in the data set on T. b. brucei [1] (setting [5]) is above 10 µM; with MRC-5 cells [2] (setting [6]), 25.1 µM.

On to `CC(C)c1nn(CCO)c2c(=O)[nH]c(-c3ccc(F)cc3)nc12` [compound 22, 5-(4-Fluorophenyl)-1-(2-hydroxyethyl)-3-isopropyl-1,6-dihydro-7H-pyrazolo[4,3-d]pyrimidin-7-one], for which the IC50 in the data set on T. b. brucei [1] (setting [5]) was 0.631 µM; in the data set with T. b. brucei [1] (Trypanosoma brucei, read-out: IC50 against T. brucei), 0.8 µM; in the data set on MRC-5 cells [2] (setting [6]), above 63.1 µM.

Take `O=c1[nH]c(-c2ccc(F)cc2)nc2c(-c3ccccc3)n[nH]c12` [compound 35, 5-(4-Fluorophenyl)-3-phenyl-1,6-dihydro-7H-pyrazolo[4,3-d]pyrimidin-7-one]: the “pIC50 T. brucei” value in the data set with T. b. brucei [1] (setting [7]) came out at 7.3 ± 0.1. In addition, in the data set with T. b. brucei [1], the “potency lower compared to 31a” value came to 4 fold. In addition, the IC50 is below 0.1 µM in the data set on T. b. brucei [1] (setting [5]) and above 63.1 µM in the data set on MRC-5 cells [2] (setting [6]).

For `Cc1ccc(C(=O)Nc2ccc(S(=O)(=O)O)c3cc(S(=O)(=O)O)cc(S(=O)(=O)O)c23)cc1NC(=O)c1cccc(NC(=O)Nc2cccc(C(=O)Nc3cc(C(=O)Nc4ccc(S(=O)(=O)O)c5cc(S(=O)(=O)O)cc(S(=O)(=O)O)c45)ccc3C)c2)c1` [suramin, reference compound], the survival entry in the data set with T. b. brucei [4] was “survived throughout the 60 days postinfection follow-up period without relapse”.
